Tests used:
VEGF = assay: VEGF-ELISA in cell culture supernatant; assay type: cell-based, human
Description: If the cell membrane is damaged, the lactadehydrogenase (LDH) present inside the cell is released into the cell culture supernatant. The resulting NADH/H+ reduces the tetrazolium salt present in the reaction mixture to formazan. This becomes visible by a colour change, which can be detected at an absorption of 450 nm (y-axis: OD 450 nm) in the microplate reader. The higher the intensity of the colour change, the greater the degree of membrane damage. A low OD 450 nm value is desired. Four diagrams are presented: The LDH level after one week (LDH 1st Week of Trial), two weeks (LDH 2nd Week of Trial) and three weeks (LDH 3rd Week of Trial) after the HFDPC cells were exposed to the control conditions or to the actives substances. The control conditions are HFDPC with medium (blue, C+M). Active substances are arachidonate with low concentration (purple, Ara 1.c), arachidonate with high concentration (orange, Ara 2.c), diosgenin with low concentration (black, Dios 1.c), diosgenin with high concentration (brown, […]), ricinoleic acid with low concentration (dark blue, Rici 1.c), ricinoleic acid with high concentration (dark violet, Rici 2.c), inventive example with low concentration (red, IE 1.c) inventive example with high concentration (green, IE 2.c). The fourth diagram presents a background control, in which the LDH level was measured by OD 450 nm values (y-axis) from the cell culture supernatant for the medium (blue, M) as a control test and for the medium with the active substance in high concentrations (green, M+Ara 2.c; purple, M+Dios 2.c; orange, M+Rici 2.c; black, M+IE 2.c) after one, two and three weeks (x-axis). • FIG 2: Phase contrast images of untreated HFDPC (HFDPC in medium) 1 week after cell cultivation a) 10x magnification, b) 20x magnification • FIG 3: Phase contrast images of treated HFDPC in 20x magnification, one week after addition of the active ingredient a) Ara 1.c, b) Ara 2.c, c) Rici 1.c, d) Rici 2.c, e) Dios 1.c, f) Dios 2.c, g) IE 1.c, h) IE 2.c • FIG 4: Phase contrast images of untreated and treated HFDPC in 20x magnification, two weeks after addition of the active ingredient a) Medium b) Ara 1.c, c) Ara 2.c, d) Rici 1.c, e) Rici 3.c, f) Dios 1.c, g) Dios 2.c, h) IE 1.c, i) IE 2.c • FIG 5: Phase contrast images of untreated and treated HFDPC in 20x magnification, three weeks after addition of the active ingredient a) Medium b) Ara 1.c, c) Ara 2.c, d) Rici 1.c, e) Rici 3.c, f) Dios 1.c, g) Dios 2.c, h) IE 1.c, i) IE 2.c • FIG 6: Alkaline Phosphatase Alkaline phosphatase (AP) is an enzyme that catalyses the hydrolysis of a large number of phosphate esters. The enzyme is formed by the HFDPCs during the hair cycle. Thus, the detection of AP is the proof of hair growth. […]

HFDPC [1] = assay: Cell impedance test (xCELLigence, cell index) on proliferation and toxicity; assay type: cell-based
HFDPC [2] = assay: Assessment of cell morphology by phase contrast microscopy; assay type: cell-based, human; conditions: for cell adherence and proliferation (summary): confluence and cell shape after 3 weeks, diosgenin concentration-dependent
Description: (§1) First, Human Follicle Dermal Papilla Cells (HFDPC) cells were thawed and seeded into collagen-coated cell culture flasks (T25). Then the medium was changed every 48 h. After 4 days the cells were trypsinized and seeded in T75 cell culture flask. In preparation for the final experiment, the cells were trypsinized and then counted with a cell counter. The cell concentration was then adjusted in a defined amount of medium followed by seeding of the cells in 96-well plates for the subsequent cell impedance measurements (5000 cells per well) or in 24-well plates (20000 cells per well). Subsequently, the cells were cultivated for 7 days in pure culture medium with regular medium changes after 2-3 days. After 7 days, the medium with the additives listed in Table 1 was added (designated as day 0), followed by a 3-week cultivation of the cells. The medium (and addition of fresh active substances) was changed every 2-3 days. […] The following examinations were carried out after 7, 14 and 21 days. Cells in pure culture medium (C+M) were used as controls (untreated). All cell culture substrates were coated with collagen prior to cell seeding. The tests with HFDPC were run without the use of preservatives.
Cell morphology was assessed through microscopic examination of the cells with an inverted microscope (phase contrast microscopy) at 10x and 20x primary magnification. The morphology of the cells provides information on the adherence behaviour of the cells,possible cell activation and cell stress. This examination was carried out on a 24-well scale.

HFDPC [3] = assay: Cell count after trypsination; assay type: cell-based, human; conditions: for influence on the cell count (summary): over 3 weeks
Description: as §1
This investigation was performed on a 24-well scale.
To perform this investigation 5000 cells per well were seeded in the 96-wells with the addition of a maximum of 200 µl medium. The cells were grown for 7 days in pure cell culture medium. The medium was changed every 2-3 days, whereby 100 µl of old medium was removed and replaced by 100 µl of new medium. After 7 days the "pure" cell culture medium was completely removed and medium with the respective additives was added. The cells were then cultivated for 3 weeks with regular replacement of the medium with the respective additives. Cell counting after trypsinizing: The exact cell count of HFDPC was determined after trypsination of the cells in the respective well and uptake of the resulting cell pellets in medium. All pellets of one sample were combined in a cell culture vessel and then counted with a cell counter.

HFDPC [4] = assay: Immunofluorescent staining of vimentin; assay type: cell-based, human; conditions: 2. Concentration (2c)
[5] = 250 µg/mL in medium, first 24 hours after addition
[6] = 1 week after addition, versus untreated cells
[7] = 2 weeks after addition, versus untreated cells
[8] = depending on concentration and time, compared to untreated cells
[9] = 1. Concentration (1c), after 3 weeks

In the case of `CCCCCC[C@@H](O)C/C=C\CCCCCCCC(=O)O` [Rici, 12-hydroxy-9-cis-octadecenoic acid], the VEGF release (VEGF; 2. Concentration (2.c), after 3 weeks) is reported as “lower VEGF release”, the cell index (HFDPC [1]; 100µg/mL, after 24 h and 48 h addition) is reported as “remained constant” and the cell index (HFDPC [1]; [5]) is reported as “positive influence on the cell index”. The “toxic effect on the cells” value (HFDPC [1]; [5]) was “does not appear to have a toxic effect”, the cell index (HFDPC [1]; 250 µg/mL, after 48h of repeated addition) was “decreases” and the “cell morphology / confluence” value (HFDPC [2]; [6]) was “greater confluence”. For the same compound, the “cell morphology / confluence” value (HFDPC [2]; [7]) was “very high confluence in the well and elongated, typical growth”, the “cell morphology / confluence” value (HFDPC [2]; 3 weeks after addition, both concentrations) was “confluent, very dense monolayer and an elongated cell shape” and the “cell adherence and proliferation (summary)” value (HFDPC [2]) was “very beneficial”. The cell count (HFDPC [3]; after 1 week, compared to untreated cells) was “difference was visible”, the cell count (HFDPC [3]; [8]) was “significant increase in cell count” and the “influence on the cell count (summary)” value (HFDPC [3]) was “positive influence on the cell count”.
`C[C@@H]1CC[C@@]2(OC1)O[C@H]1C[C@H]3[C@@H]4CC=C5C[C@@H](O)CC[C@]5(C)[C@H]4CC[C@]3(C)[C@H]1[C@@H]2C` [Dios, Diosgenin] was tested, and the VEGF release (VEGF; 1. Concentration (1c), after 1 week) was “lower VEGF release”, the VEGF release (VEGF; [9]) was “lower VEGF release” and the “toxicity in the cellular impedance test” value (HFDPC [1]; measured maximum concentration of 500 µg/mL) was “not toxic”. The “cell morphology / confluence” value (HFDPC [2]; [6]) was “greater confluence”, the “cell morphology / confluence” value (HFDPC [2]; [7]) was “very high confluence in the well and elongated, typical growth” and the “cell morphology / confluence” value (HFDPC [2]; 3 weeks after addition, lower concentration) was “resembled untreated cells”. For the same compound, the “cell adherence and proliferation (summary)” value (HFDPC [2]) was “very beneficial”, the “cell spreading and attachment to the cell culture substrate” value (HFDPC [4]) was “able to clearly spread and attach to the cell culture substrate” and the “number of HDFPC” value (HFDPC [3]; 1c, over time) was “remained constant after addition of Diosgenin 1c, but was increased compared to untreated cells”. For the same compound, the cell number (HFDPC [3]; 2c, over time, compared to untreated and Diosgenin 1c treated cells) was “significant increase in cell number”, the cell count (HFDPC [3]; [8]) was “positive influence on the cell number” and the “influence on the cell count (summary)” value (HFDPC [3]) was “positive influence on the cell count”.
For `CCCCC/C=C\C/C=C\C/C=C\C/C=C\CCCC(=O)[O-].[Na+]` [Ara, Sodium Arachidonate], the VEGF release (VEGF; [9]) was “lower VEGF release”, the cell index (HFDPC [1]; 50 µg/mL in medium) was “increase the cell index” and the “toxic effect on the cells” value (HFDPC [1]; 50 µg/mL in medium) was “does not have a toxic effect”. The “toxic effect on the cells” value (HFDPC [1]; 100µg/mL in medium) was “has a toxic effect”, the cell density (HFDPC [2]; 2 weeks after addition, higher concentration) was “higher cell density” and the “cell morphology / confluence” value (HFDPC [2]; [7]) was “almost the same morphology”. The “cell spreading and attachment to the cell culture substrate” value (HFDPC [4]) was “able to clearly spread and attach to the cell culture substrate”, the cell count (HFDPC [3]; after 3 weeks, higher concentration, compared to untreated cells) was “increase in HFDPC” and the cell count (HFDPC [3]; entire duration of the experiment, independent of time and concentration) was “did not negatively affect the cell count”. For the same compound, the cell count (HFDPC [3]; over 2 weeks) was “remained constant”.

Reference: patent publication EP3895685A1, “NATURAL COMPOSITION FOR HAIR GROWTH STIMULATION AND HAIR LOSS PREVENTION AND TREATMENT WITHOUT PRESERVATIVES” (Fraunhofer-Gesellschaft zur Förderung der angewandten …, priority 2020, dated 2021)
